The kinase profiling compilation of Christmann-Franck et al. (2016)

Assays:
Assay in all cases: KINOMEscan competition binding
Details in all cases: compound 10.0 µM
[1] = target: CDK11B (human) (UniProt P21127)
[2] = target: CDK16 (human) (UniProt Q00536)
[3] = target: CDK18 (human) (UniProt Q07002)
[4] = target: CDKL2 (human) (UniProt Q92772)
[5] = target: CDKL5 (human) (UniProt O76039)
[6] = target: CLK3 (human) (UniProt P49761)
[7] = target: CaMK1 (human) (UniProt Q14012)
[8] = system: EGFR (human), P00533 [752-759 del]
[9] = target: EPHA2 (human) (UniProt P29317)
[10] = target: FGFR2 (human) (UniProt P21802)
[11] = target: FGR (human) (UniProt P09769)
[12] = target: FLT4 (human) (UniProt P35916)
[13] = target: GRK1 (human) (UniProt Q15835)
[14] = target: GRK4 (human) (UniProt P32298)
[15] = target: GRK7 (human) (UniProt Q8WTQ7)
[16] = target: JAK1 JH1 catalytic (human) (UniProt P23458)
[17] = target: LCK (human) (UniProt P06239)
[18] = target: MAP2K6 (human) (UniProt P52564)
[19] = target: MAP3K10 (human) (UniProt Q02779)
[20] = target: MKNK2 (human) (UniProt Q9HBH9)
Sequence of MKNK2 (human) (Q9HBH9 whole entry, looked up): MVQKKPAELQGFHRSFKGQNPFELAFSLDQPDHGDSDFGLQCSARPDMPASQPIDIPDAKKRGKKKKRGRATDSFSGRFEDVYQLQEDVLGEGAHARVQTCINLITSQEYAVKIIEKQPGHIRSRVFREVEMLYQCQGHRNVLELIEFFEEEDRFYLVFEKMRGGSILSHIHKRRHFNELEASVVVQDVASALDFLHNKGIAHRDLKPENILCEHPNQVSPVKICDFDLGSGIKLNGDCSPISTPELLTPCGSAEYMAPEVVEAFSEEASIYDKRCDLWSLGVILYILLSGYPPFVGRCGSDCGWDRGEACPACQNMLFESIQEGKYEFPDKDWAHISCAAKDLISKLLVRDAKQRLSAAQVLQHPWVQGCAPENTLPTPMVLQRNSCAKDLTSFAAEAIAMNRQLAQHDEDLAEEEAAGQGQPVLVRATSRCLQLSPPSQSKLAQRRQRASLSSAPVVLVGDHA

[21] = target: MLTK (human) (UniProt Q9NYL2)
[22] = target: MUSK (human) (UniProt O15146)
Sequence of MUSK (human) (O15146 whole entry, looked up): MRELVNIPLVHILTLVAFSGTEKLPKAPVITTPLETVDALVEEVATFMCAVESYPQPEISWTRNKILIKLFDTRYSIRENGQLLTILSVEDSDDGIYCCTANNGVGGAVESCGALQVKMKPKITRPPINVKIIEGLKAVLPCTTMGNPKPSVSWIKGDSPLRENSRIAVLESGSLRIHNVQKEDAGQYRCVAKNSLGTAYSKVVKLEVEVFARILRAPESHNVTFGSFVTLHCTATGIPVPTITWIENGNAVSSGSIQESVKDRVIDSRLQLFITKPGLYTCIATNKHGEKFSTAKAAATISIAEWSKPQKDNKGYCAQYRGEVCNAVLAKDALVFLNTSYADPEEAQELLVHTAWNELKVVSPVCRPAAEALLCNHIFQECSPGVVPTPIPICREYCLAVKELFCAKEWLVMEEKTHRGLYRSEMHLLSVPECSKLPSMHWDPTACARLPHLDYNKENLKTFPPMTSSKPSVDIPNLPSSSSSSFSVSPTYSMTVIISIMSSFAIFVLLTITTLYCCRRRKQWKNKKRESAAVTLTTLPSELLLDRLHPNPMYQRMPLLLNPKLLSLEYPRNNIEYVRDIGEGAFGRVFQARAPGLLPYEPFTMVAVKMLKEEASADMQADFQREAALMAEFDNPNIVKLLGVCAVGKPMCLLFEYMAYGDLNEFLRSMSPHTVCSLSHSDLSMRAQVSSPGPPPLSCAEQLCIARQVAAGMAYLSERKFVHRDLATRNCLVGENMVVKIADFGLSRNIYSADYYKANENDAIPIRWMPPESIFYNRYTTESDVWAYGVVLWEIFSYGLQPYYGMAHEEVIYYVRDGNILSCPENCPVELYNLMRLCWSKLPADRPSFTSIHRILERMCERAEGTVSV

[23] = target: NTRK2 (human) (UniProt Q16620)
[24] = target: PDGFRA (human) (UniProt P16234)
[25] = target: PTK2B (human) (UniProt Q14289)
Sequence of PTK2B (human) (Q14289 whole entry, looked up): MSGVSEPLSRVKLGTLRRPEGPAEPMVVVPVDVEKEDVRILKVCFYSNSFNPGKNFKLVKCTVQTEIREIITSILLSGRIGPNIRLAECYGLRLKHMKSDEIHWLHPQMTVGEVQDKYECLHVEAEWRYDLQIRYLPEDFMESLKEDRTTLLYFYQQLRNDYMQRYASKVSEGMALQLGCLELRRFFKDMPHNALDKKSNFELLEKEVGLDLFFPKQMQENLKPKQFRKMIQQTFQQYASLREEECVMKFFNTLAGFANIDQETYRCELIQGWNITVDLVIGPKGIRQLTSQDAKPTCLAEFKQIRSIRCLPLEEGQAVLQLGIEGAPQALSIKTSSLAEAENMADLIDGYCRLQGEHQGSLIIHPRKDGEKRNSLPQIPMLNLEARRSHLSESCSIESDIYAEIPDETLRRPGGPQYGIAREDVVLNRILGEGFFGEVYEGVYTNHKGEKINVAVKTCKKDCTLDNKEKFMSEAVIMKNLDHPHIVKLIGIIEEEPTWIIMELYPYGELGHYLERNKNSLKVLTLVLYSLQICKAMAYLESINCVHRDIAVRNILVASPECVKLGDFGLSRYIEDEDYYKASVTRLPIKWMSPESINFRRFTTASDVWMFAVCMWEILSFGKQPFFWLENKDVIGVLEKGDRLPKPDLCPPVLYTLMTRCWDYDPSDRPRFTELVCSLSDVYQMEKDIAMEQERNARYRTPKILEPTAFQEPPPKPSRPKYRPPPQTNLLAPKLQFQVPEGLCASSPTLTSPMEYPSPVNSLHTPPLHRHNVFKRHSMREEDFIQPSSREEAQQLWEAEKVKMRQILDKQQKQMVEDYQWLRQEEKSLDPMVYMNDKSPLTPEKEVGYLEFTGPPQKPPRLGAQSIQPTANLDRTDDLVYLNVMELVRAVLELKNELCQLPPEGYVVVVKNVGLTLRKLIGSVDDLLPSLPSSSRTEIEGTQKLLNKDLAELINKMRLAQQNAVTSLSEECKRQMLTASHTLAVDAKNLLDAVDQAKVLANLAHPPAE

[26] = system: RET (human), P07949 [V804M]
[27] = target: ROCK1 (human) (UniProt Q13464)
[28] = target: SIK2 (human) (UniProt Q9H0K1)
[29] = target: SRPK2 (human) (UniProt P78362)
Sequence of SRPK2 (human) (P78362 whole entry, looked up): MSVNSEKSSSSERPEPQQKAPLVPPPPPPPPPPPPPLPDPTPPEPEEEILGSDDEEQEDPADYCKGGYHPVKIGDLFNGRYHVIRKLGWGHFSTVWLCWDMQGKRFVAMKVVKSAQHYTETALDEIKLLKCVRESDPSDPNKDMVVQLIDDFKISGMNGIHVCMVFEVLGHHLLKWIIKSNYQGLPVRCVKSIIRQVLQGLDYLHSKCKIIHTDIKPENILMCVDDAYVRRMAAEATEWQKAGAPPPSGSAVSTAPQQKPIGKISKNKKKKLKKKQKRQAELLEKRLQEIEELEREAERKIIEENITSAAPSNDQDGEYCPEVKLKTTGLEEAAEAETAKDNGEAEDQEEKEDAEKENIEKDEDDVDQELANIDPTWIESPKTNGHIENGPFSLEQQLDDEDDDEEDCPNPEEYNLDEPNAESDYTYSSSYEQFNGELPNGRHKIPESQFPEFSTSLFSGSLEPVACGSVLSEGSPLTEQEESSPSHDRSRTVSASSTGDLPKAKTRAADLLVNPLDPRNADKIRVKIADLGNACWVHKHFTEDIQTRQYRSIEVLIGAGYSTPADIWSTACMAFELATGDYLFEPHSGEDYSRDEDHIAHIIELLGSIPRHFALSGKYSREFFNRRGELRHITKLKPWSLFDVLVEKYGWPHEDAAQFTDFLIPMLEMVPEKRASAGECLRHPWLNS

[30] = target: STK24 (human) (UniProt Q9Y6E0)
[31] = target: STK33 (human) (UniProt Q9BYT3)
[32] = target: STK38L (human) (UniProt Q9Y2H1)
[33] = target: TLK1 (human) (UniProt Q9UKI8)
[34] = target: YES1 (human) (UniProt P07947)
Sequence of YES1 (human) (P07947 whole entry, looked up): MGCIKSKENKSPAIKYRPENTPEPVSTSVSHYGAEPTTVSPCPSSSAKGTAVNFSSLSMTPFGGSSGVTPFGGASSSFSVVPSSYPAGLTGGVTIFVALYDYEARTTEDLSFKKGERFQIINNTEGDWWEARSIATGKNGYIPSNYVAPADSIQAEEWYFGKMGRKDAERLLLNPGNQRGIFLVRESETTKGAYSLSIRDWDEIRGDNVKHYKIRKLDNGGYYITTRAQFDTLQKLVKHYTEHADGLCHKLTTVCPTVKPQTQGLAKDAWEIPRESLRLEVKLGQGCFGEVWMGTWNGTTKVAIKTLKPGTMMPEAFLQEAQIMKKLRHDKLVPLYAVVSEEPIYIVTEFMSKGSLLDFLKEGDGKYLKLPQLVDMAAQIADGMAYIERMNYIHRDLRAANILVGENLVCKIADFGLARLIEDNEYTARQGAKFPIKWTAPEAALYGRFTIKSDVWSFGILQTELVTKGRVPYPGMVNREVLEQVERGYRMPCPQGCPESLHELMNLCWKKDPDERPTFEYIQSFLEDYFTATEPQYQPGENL

[35] = target: YSK4 (human) (UniProt Q56UN5)
[36] = target: CDK4 CCND3 (human) (UniProt P11802+P30281)
[37] = system: CPK1 (P.falciparum)
[38] = target: PIP4K2C (human) (UniProt Q8TBX8)
[39] = target: PKN3 (M.tuberculosis) (UniProt Q6P5Z2)
[40] = target: TAOK2 (human) (UniProt Q9UL54)

Sequence of CDKL5 (human) (O76039 whole entry, looked up): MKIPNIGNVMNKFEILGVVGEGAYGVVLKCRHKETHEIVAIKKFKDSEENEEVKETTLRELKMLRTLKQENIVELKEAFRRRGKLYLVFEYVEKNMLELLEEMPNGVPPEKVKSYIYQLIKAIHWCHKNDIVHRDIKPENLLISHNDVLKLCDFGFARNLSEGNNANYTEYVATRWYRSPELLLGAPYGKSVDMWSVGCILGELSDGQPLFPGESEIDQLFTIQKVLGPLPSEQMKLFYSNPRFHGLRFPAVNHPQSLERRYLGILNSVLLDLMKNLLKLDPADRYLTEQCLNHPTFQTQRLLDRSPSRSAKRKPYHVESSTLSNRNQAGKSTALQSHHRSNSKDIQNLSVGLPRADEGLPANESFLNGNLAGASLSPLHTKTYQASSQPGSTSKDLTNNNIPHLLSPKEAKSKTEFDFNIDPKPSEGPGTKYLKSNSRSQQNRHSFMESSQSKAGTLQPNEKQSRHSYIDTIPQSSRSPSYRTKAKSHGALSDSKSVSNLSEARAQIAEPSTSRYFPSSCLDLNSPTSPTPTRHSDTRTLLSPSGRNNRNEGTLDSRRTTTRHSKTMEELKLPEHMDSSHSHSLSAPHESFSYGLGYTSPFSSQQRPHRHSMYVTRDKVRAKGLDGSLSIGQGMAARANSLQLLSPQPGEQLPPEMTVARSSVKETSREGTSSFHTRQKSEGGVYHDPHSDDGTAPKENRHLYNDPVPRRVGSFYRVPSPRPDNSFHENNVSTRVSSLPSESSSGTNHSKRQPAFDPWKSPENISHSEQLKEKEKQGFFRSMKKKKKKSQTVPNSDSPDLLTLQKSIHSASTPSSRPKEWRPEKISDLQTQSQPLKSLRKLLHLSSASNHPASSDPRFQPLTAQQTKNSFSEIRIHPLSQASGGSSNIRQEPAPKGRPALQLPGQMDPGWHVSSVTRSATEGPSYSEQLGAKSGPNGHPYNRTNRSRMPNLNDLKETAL
Sequence of CDK18 (human) (Q07002 whole entry, looked up): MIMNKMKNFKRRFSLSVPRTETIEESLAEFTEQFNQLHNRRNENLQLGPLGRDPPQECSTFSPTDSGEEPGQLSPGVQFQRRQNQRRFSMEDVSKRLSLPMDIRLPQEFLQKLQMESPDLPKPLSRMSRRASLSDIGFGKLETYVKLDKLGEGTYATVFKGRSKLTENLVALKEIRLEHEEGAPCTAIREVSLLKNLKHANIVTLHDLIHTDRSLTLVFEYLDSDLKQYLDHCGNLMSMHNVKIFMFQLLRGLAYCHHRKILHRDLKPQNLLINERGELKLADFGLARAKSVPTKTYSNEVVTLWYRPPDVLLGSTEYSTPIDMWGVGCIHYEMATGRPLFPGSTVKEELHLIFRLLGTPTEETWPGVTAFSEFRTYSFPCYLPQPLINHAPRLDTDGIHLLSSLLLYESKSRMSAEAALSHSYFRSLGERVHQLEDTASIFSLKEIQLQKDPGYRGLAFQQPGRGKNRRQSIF

With `COc1cc(N2CCN(C)CC2)ccc1Nc1ncc2c(n1)N(C)c1ccccc1C(=O)N2C` the kinase still bound, per cent of control [1] was 100%, the kinase still bound, per cent of control [2] was 100% and the kinase still bound, per cent of control [3] was 100%. For the same molecule, the kinase still bound, per cent of control [4] was 100%, the kinase still bound, per cent of control [5] was 100% and the kinase still bound, per cent of control [6] was 100%. It also gave a kinase still bound, per cent of control [7] of 100%, a kinase still bound, per cent of control [8] of 100% and a kinase still bound, per cent of control [9] of 100%. For the same molecule, the kinase still bound, per cent of control [10] was 100%, the kinase still bound, per cent of control [11] was 100% and the kinase still bound, per cent of control [12] was 100%. For the same molecule, the kinase still bound, per cent of control [13] was 100%, the kinase still bound, per cent of control [14] was 100% and the kinase still bound, per cent of control [15] was 100%. The kinase still bound, per cent of control [16] was 100%, the kinase still bound, per cent of control [17] was 100% and the kinase still bound, per cent of control [18] was 100%. The kinase still bound, per cent of control [19] was 100%, the kinase still bound, per cent of control [20] was 0% and the kinase still bound, per cent of control [21] was 100%. For the same molecule, the kinase still bound, per cent of control [22] was 100%, the kinase still bound, per cent of control [23] was 100% and the kinase still bound, per cent of control [24] was 100%. For the same molecule, the kinase still bound, per cent of control [25] was 100%, the kinase still bound, per cent of control [26] was 100% and the kinase still bound, per cent of control [27] was 100%. It also gave a kinase still bound, per cent of control [28] of 100%, a kinase still bound, per cent of control [29] of 100% and a kinase still bound, per cent of control [30] of 100%. For the same molecule, the kinase still bound, per cent of control [31] was 8.8%, the kinase still bound, per cent of control [32] was 100% and the kinase still bound, per cent of control [33] was 100%. For the same molecule, the kinase still bound, per cent of control [34] was 100% and the kinase still bound, per cent of control [35] was 100%.

`NC(=O)Nc1cc(-c2cccc(F)c2)sc1C(=O)N[C@@H]1CCCNC1` gave a kinase still bound, per cent of control [1] of 100%, a kinase still bound, per cent of control [2] of 79% and a kinase still bound, per cent of control [3] of 100%. It also gave a kinase still bound, per cent of control [36] of 92%, a kinase still bound, per cent of control [4] of 60% and a kinase still bound, per cent of control [5] of 100%. For the same molecule, the kinase still bound, per cent of control [6] was 62%, the kinase still bound, per cent of control [37] was 0.1% and the kinase still bound, per cent of control [7] was 2%. For the same molecule, the kinase still bound, per cent of control [8] was 2.4%, the kinase still bound, per cent of control [9] was 7.4% and the kinase still bound, per cent of control [10] was 11%. The kinase still bound, per cent of control [11] was 0.2%, the kinase still bound, per cent of control [12] was 0% and the kinase still bound, per cent of control [13] was 0.6%. For the same molecule, the kinase still bound, per cent of control [14] was 0%, the kinase still bound, per cent of control [15] was 0.15% and the kinase still bound, per cent of control [16] was 17%. It also gave a kinase still bound, per cent of control [17] of 0%, a kinase still bound, per cent of control [18] of 3.8% and a kinase still bound, per cent of control [19] of 1.2%. It also gave a kinase still bound, per cent of control [20] of 0%, a kinase still bound, per cent of control [21] of 40% and a kinase still bound, per cent of control [22] of 18%. The kinase still bound, per cent of control [23] was 0.35%, the kinase still bound, per cent of control [38] was 87% and the kinase still bound, per cent of control [39] was 0%. For the same molecule, the kinase still bound, per cent of control [25] was 0.6%, the kinase still bound, per cent of control [26] was 0% and the kinase still bound, per cent of control [28] was 2.6%. The kinase still bound, per cent of control [29] was 4.4%, the kinase still bound, per cent of control [30] was 0.3% and the kinase still bound, per cent of control [31] was 0%. For the same molecule, the kinase still bound, per cent of control [32] was 0%, the kinase still bound, per cent of control [40] was 35% and the kinase still bound, per cent of control [33] was 0.9%. It also gave a kinase still bound, per cent of control [34] of 0.2% and a kinase still bound, per cent of control [35] of 0%.

`C[C@@H](Oc1cc(-c2cnn(C3CCNCC3)c2)cnc1N)c1c(Cl)ccc(F)c1Cl` gave a kinase still bound, per cent of control [1] of 0.1%, a kinase still bound, per cent of control [2] of 96% and a kinase still bound, per cent of control [3] of 94%. For the same molecule, the kinase still bound, per cent of control [36] was 39%, the kinase still bound, per cent of control [4] was 5.4% and the kinase still bound, per cent of control [5] was 25%. The kinase still bound, per cent of control [7] was 37%, the kinase still bound, per cent of control [9] was 1.5% and the kinase still bound, per cent of control [10] was 35%. It also gave a kinase still bound, per cent of control [11] of 6.8%, a kinase still bound, per cent of control [12] of 100% and a kinase still bound, per cent of control [13] of 92%. It also gave a kinase still bound, per cent of control [14] of 14%, a kinase still bound, per cent of control [15] of 42% and a kinase still bound, per cent of control [16] of 0.45%. The kinase still bound, per cent of control [17] was 0.15%, the kinase still bound, per cent of control [18] was 54% and the kinase still bound, per cent of control [19] was 79%. For the same molecule, the kinase still bound, per cent of control [20] was 11%, the kinase still bound, per cent of control [21] was 100% and the kinase still bound, per cent of control [22] was 0.3%. The kinase still bound, per cent of control [23] was 0.2%, the kinase still bound, per cent of control [24] was 92% and the kinase still bound, per cent of control [38] was 100%. For the same molecule, the kinase still bound, per cent of control [39] was 30%, the kinase still bound, per cent of control [27] was 4% and the kinase still bound, per cent of control [28] was 12%. The kinase still bound, per cent of control [29] was 46%, the kinase still bound, per cent of control [30] was 44% and the kinase still bound, per cent of control [31] was 26%. It also gave a kinase still bound, per cent of control [32] of 95%, a kinase still bound, per cent of control [40] of 0.9% and a kinase still bound, per cent of control [33] of 61%. The kinase still bound, per cent of control [34] was 17% and the kinase still bound, per cent of control [35] was 2.4%.

`CCN(CC)CCCCNc1ncc2c(n1)N(C)C(=O)N(c1c(Cl)c(OC)cc(OC)c1Cl)C2` was tested, and the kinase still bound, per cent of control [1] was 100%, the kinase still bound, per cent of control [2] was 100% and the kinase still bound, per cent of control [3] was 100%. It also gave a kinase still bound, per cent of control [4] of 100%, a kinase still bound, per cent of control [5] of 100% and a kinase still bound, per cent of control [6] of 100%. For the same molecule, the kinase still bound, per cent of control [7] was 100%, the kinase still bound, per cent of control [8] was 100% and the kinase still bound, per cent of control [9] was 100%. The kinase still bound, per cent of control [10] was 2.6%, the kinase still bound, per cent of control [11] was 100% and the kinase still bound, per cent of control [12] was 100%. It also gave a kinase still bound, per cent of control [13] of 100%, a kinase still bound, per cent of control [14] of 100% and a kinase still bound, per cent of control [15] of 100%. For the same molecule, the kinase still bound, per cent of control [16] was 100%, the kinase still bound, per cent of control [17] was 3% and the kinase still bound, per cent of control [18] was 100%. For the same molecule, the kinase still bound, per cent of control [19] was 100%, the kinase still bound, per cent of control [20] was 100% and the kinase still bound, per cent of control [21] was 100%. The kinase still bound, per cent of control [22] was 100%, the kinase still bound, per cent of control [23] was 100% and the kinase still bound, per cent of control [24] was 100%. For the same molecule, the kinase still bound, per cent of control [25] was 100%, the kinase still bound, per cent of control [26] was 100% and the kinase still bound, per cent of control [27] was 100%. For the same molecule, the kinase still bound, per cent of control [28] was 100%, the kinase still bound, per cent of control [29] was 100% and the kinase still bound, per cent of control [30] was 13%. The kinase still bound, per cent of control [31] was 100%, the kinase still bound, per cent of control [32] was 100% and the kinase still bound, per cent of control [33] was 100%. It also gave a kinase still bound, per cent of control [34] of 100% and a kinase still bound, per cent of control [35] of 100%.
